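Interpolation was linear, between the two tested concentrations surrounding the appropriate level; five concentrations were tested over 48 hours in 96-well plates. At the GI50, growth is halved. TGI: concentration producing complete growth inhibition.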
Tests used:
Test in all cases: growth of human tumour cells (NCI), 48 h
786-0 renal = system: 786-0 renal
A498 renal = system: A498 renal
A549 NSCLC = system: A549 NSCLC
ACHN renal = system: ACHN renal
BT-549 breast = system: BT-549 breast
CAKI-1 renal = system: CAKI-1 renal
CCRF-CEM leukemia = system: CCRF-CEM leukemia
DU-145 prostate = system: DU-145 prostate
EKVX NSCLC = system: EKVX NSCLC
HCC-2998 colon = system: HCC-2998 colon
HCT-116 colon = system: HCT-116 colon
HCT-15 colon = system: HCT-15 colon
HL-60(TB) leukemia = system: HL-60(TB) leukemia
HOP-62 NSCLC = system: HOP-62 NSCLC
HOP-92 NSCLC = system: HOP-92 NSCLC
HS 578T breast = system: HS 578T breast
HT29 colon = system: HT29 colon
IGROV1 ovarian = system: IGROV1 ovarian
K-562 leukemia = system: K-562 leukemia
KM12 colon = system: KM12 colon
LOX IMVI melanoma = system: LOX IMVI melanoma
M14 melanoma = system: M14 melanoma
MALME-3M melanoma = system: MALME-3M melanoma
MCF7 breast = system: MCF7 breast
MDA-MB-231 breast = system: MDA-MB-231 breast
MDA-MB-435 = system: MDA-MB-435
MOLT-4 leukemia = system: MOLT-4 leukemia
NCI-H226 lung = system: NCI-H226 lung

COc1ccc(C(=O)C2C(C#N)C(C#N)C3C=Cc4ccccc4N32)cc1 (stereo unspecified)
GI50 (786-0 renal): 4430 nM
TGI (786-0 renal): > 100000 nM
GI50 (A498 renal): 244 nM
TGI (A498 renal): 3130 nM
GI50 (A549 NSCLC): 2400 nM
TGI (A549 NSCLC): > 100000 nM
GI50 (ACHN renal): 1430 nM
TGI (ACHN renal): > 100000 nM
GI50 (BT-549 breast): 1980 nM
TGI (BT-549 breast): > 100000 nM
GI50 (CAKI-1 renal): 460 nM
TGI (CAKI-1 renal): > 100000 nM
GI50 (CCRF-CEM leukemia): 1940 nM
TGI (CCRF-CEM leukemia): > 100000 nM
GI50 (DU-145 prostate): 2930 nM
TGI (DU-145 prostate): > 100000 nM
GI50 (EKVX NSCLC): 6290 nM
TGI (EKVX NSCLC): > 100000 nM
GI50 (HCC-2998 colon): 2990 nM
TGI (HCC-2998 colon): > 100000 nM
GI50 (HCT-116 colon): 653 nM
TGI (HCT-116 colon): 14900 nM
GI50 (HCT-15 colon): 844 nM
TGI (HCT-15 colon): > 100000 nM
GI50 (HL-60(TB) leukemia): 1230 nM
TGI (HL-60(TB) leukemia): 19500 nM
GI50 (HOP-62 NSCLC): 3760 nM
TGI (HOP-62 NSCLC): > 100000 nM
GI50 (HOP-92 NSCLC): 2770 nM
TGI (HOP-92 NSCLC): > 100000 nM
GI50 (HS 578T breast): 2100 nM
TGI (HS 578T breast): > 100000 nM
GI50 (HT29 colon): 742 nM
TGI (HT29 colon): > 100000 nM
GI50 (IGROV1 ovarian): 2740 nM
TGI (IGROV1 ovarian): > 100000 nM
GI50 (K-562 leukemia): 405 nM
TGI (K-562 leukemia): > 100000 nM
GI50 (KM12 colon): 1250 nM
TGI (KM12 colon): > 100000 nM
GI50 (LOX IMVI melanoma): 2100 nM
TGI (LOX IMVI melanoma): > 100000 nM
GI50 (M14 melanoma): 500 nM
TGI (M14 melanoma): > 100000 nM
GI50 (MALME-3M melanoma): 2670 nM
TGI (MALME-3M melanoma): > 100000 nM
GI50 (MCF7 breast): 1090 nM
TGI (MCF7 breast): > 100000 nM
GI50 (MDA-MB-231 breast): 1460 nM
TGI (MDA-MB-231 breast): 44100 nM
GI50 (MDA-MB-435): 335 nM
TGI (MDA-MB-435): 1240 nM
GI50 (MOLT-4 leukemia): 2600 nM
TGI (MOLT-4 leukemia): > 100000 nM
GI50 (NCI-H226 lung): 2290 nM
TGI (NCI-H226 lung): 30200 nM
